Experimental data published in patent publication US20250243196A1, “CITRON KINASE INHIBITORS” (The Cleveland Clinic Foundation, priority 2021, published 2025).

Tests used:
Assay in all cases: KinaseProfiler panel
Assay type in all cases: biochemical
Conditions in all cases: activity remaining
[1] = molecular target: PAK1(h) (Homo sapiens (Human), UniProt Q13153); set-up: dose or concentration left out as unconfirmed
[2] = molecular target: Fgr(h) (Homo sapiens (Human), UniProt P09769); set-up: dose or concentration left out as unconfirmed
[3] = molecular target: Yes(h) (Homo sapiens (Human), UniProt P07947); set-up: dose or concentration left out as unconfirmed
[4] = molecular target: IKKα(h) (Homo sapiens (Human), UniProt O15111); set-up: dose or concentration left out as unconfirmed
[5] = molecular target: CaMKI(h) (Homo sapiens (Human), UniProt Q14012); set-up: dose or concentration left out as unconfirmed
[6] = molecular target: IRR(h) (Homo sapiens (Human), UniProt P14616); set-up: dose or concentration left out as unconfirmed
[7] = molecular target: WNK1(h) (Homo sapiens (Human), UniProt Q9H4A3); set-up: dose or concentration left out as unconfirmed
[8] = molecular target: TrkA(h) (Homo sapiens (Human), UniProt P04629); set-up: dose or concentration left out as unconfirmed
[9] = molecular target: ChaK1(h) (Homo sapiens (Human), UniProt Q96QT4); set-up: dose or concentration left out as unconfirmed
[10] = molecular target: TGFBR2(h) (Homo sapiens (Human), UniProt P37173); set-up: dose or concentration left out as unconfirmed
[11] = molecular target: TTBK2(h) (Homo sapiens (Human), UniProt Q6IQ55); set-up: dose or concentration left out as unconfirmed
[12] = molecular target: MAP4K4(h) (Homo sapiens (Human), UniProt O95819); set-up: dose or concentration left out as unconfirmed
[13] = molecular target: ULK2(h) (Homo sapiens (Human), UniProt Q8IYT8); set-up: dose or concentration left out as unconfirmed
Chain of ULK2(h) (Q8IYT8 whole entry): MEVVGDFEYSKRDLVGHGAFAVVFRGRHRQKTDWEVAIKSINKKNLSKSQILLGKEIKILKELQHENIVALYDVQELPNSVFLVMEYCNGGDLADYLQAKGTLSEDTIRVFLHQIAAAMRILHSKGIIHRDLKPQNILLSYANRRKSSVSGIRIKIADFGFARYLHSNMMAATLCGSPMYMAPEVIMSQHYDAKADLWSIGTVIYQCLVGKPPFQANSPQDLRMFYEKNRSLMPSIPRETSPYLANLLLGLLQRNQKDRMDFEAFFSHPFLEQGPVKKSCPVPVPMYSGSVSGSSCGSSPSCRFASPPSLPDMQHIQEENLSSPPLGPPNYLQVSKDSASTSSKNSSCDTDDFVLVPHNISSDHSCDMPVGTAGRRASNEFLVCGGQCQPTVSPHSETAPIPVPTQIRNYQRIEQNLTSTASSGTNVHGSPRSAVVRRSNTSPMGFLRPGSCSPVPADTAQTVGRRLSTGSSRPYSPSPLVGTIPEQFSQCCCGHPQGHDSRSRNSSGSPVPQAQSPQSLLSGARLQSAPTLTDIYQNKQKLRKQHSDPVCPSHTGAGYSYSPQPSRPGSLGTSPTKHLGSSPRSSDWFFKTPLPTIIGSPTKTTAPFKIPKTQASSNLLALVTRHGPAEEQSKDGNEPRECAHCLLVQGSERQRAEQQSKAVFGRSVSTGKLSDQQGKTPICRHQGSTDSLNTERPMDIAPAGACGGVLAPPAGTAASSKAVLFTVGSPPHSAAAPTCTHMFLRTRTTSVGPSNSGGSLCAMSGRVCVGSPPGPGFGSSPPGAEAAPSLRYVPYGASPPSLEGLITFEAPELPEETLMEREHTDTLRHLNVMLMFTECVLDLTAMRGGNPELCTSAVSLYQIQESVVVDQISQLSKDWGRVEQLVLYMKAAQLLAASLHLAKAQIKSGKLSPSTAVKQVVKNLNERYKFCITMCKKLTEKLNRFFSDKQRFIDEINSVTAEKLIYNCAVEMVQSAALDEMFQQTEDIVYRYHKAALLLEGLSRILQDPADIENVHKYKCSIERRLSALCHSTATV

[14] = molecular target: MKK6(h) (Homo sapiens (Human), UniProt P52564); set-up: dose or concentration left out as unconfirmed
Chain of MKK6(h) (P52564 whole entry): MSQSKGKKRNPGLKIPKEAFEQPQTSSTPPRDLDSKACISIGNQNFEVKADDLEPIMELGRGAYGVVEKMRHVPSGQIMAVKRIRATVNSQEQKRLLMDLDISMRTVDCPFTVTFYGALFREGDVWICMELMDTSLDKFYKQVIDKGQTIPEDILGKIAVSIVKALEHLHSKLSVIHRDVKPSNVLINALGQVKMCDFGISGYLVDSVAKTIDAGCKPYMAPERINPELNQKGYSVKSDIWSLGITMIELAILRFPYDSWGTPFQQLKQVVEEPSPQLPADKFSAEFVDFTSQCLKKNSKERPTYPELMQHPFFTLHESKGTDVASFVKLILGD

[15] = molecular target: PKD2(h) (Homo sapiens (Human), UniProt Q9BZL6); set-up: dose or concentration left out as unconfirmed
Chain of PKD2(h) (Q9BZL6 whole entry): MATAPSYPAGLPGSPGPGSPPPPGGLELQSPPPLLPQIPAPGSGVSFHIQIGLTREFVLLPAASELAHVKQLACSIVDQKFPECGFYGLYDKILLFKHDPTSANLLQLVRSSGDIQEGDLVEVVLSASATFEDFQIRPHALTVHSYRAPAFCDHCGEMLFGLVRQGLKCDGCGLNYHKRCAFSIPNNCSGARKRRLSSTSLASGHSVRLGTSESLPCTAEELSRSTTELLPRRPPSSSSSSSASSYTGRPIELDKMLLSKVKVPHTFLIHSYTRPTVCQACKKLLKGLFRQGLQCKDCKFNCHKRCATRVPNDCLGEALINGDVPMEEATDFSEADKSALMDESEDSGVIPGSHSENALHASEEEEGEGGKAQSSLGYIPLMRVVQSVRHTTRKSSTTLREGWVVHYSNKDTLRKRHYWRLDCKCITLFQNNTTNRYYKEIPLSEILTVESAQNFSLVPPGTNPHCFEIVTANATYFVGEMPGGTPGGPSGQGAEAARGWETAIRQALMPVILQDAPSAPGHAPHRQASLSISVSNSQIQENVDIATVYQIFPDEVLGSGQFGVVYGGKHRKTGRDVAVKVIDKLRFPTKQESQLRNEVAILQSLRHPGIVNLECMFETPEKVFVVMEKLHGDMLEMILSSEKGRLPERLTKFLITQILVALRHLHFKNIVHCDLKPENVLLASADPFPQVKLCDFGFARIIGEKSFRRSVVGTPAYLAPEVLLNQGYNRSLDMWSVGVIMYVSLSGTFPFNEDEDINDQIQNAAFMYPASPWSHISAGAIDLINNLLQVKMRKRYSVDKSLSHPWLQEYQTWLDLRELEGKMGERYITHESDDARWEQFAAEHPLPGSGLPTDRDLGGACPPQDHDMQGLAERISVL

[16] = molecular target: CaMKIIγ(h) (Homo sapiens (Human), UniProt Q13555); set-up: dose or concentration left out as unconfirmed
Chain of CaMKIIγ(h) (Q13555 whole entry): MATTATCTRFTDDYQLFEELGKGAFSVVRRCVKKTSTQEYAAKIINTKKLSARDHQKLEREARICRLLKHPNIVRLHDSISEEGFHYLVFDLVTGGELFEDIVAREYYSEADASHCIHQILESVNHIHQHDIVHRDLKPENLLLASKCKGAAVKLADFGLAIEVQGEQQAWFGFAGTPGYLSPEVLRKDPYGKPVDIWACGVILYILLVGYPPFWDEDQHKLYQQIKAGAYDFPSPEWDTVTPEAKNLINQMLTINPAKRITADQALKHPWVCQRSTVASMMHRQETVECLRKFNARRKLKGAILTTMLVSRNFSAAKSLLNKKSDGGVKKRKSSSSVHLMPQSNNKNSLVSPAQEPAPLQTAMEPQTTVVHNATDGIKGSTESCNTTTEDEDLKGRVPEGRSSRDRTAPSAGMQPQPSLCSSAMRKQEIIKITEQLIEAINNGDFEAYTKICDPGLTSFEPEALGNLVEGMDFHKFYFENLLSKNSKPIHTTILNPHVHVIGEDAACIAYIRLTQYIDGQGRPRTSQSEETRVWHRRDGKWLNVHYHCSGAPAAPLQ

[17] = molecular target: GSK3α(h) (Homo sapiens (Human), UniProt P49840); set-up: dose or concentration left out as unconfirmed
[18] = molecular target: Lck(h) (Homo sapiens (Human), UniProt P06239); set-up: dose or concentration left out as unconfirmed
[19] = molecular target: PI3KC2g(h) (Homo sapiens (Human), UniProt O75747)
[20] = molecular target: CDK12/cyclinK(h) (Homo sapiens (Human), UniProt Q9NYV4); set-up: dose or concentration left out as unconfirmed
[21] = molecular target: Pyk2(h) (Homo sapiens (Human), UniProt Q14289); set-up: dose or concentration left out as unconfirmed
[22] = molecular target: CDK2/cyclinA(h) (Homo sapiens (Human), UniProt P24941); set-up: dose or concentration left out as unconfirmed
[23] = molecular target: CaMKIβ(h) (Homo sapiens (Human), UniProt Q6P2M8); set-up: dose or concentration left out as unconfirmed
Chain of CaMKIβ(h) (Q6P2M8 whole entry): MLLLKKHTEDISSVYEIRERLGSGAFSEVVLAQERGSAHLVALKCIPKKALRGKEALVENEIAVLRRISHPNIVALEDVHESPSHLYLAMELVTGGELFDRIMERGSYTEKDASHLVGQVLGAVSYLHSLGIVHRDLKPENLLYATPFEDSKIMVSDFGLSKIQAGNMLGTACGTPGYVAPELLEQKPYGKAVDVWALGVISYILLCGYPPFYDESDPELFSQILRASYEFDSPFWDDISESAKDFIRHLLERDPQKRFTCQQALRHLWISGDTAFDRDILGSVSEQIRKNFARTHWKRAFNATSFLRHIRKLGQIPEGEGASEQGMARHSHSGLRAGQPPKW

[24] = molecular target: EphA3(h) (Homo sapiens (Human), UniProt P29320); set-up: dose or concentration left out as unconfirmed
[25] = molecular target: JNK1α1(h) (Homo sapiens (Human), UniProt P45983); set-up: dose or concentration left out as unconfirmed
[26] = molecular target: MARK1(h) (Homo sapiens (Human), UniProt Q9P0L2); set-up: dose or concentration left out as unconfirmed
[27] = molecular target: TRB2(h) (Homo sapiens (Human), UniProt Q92519); set-up: dose or concentration left out as unconfirmed
[28] = molecular target: MLK1(h) (Homo sapiens (Human), UniProt P80192); set-up: dose or concentration left out as unconfirmed
Chain of MLK1(h) (P80192 whole entry): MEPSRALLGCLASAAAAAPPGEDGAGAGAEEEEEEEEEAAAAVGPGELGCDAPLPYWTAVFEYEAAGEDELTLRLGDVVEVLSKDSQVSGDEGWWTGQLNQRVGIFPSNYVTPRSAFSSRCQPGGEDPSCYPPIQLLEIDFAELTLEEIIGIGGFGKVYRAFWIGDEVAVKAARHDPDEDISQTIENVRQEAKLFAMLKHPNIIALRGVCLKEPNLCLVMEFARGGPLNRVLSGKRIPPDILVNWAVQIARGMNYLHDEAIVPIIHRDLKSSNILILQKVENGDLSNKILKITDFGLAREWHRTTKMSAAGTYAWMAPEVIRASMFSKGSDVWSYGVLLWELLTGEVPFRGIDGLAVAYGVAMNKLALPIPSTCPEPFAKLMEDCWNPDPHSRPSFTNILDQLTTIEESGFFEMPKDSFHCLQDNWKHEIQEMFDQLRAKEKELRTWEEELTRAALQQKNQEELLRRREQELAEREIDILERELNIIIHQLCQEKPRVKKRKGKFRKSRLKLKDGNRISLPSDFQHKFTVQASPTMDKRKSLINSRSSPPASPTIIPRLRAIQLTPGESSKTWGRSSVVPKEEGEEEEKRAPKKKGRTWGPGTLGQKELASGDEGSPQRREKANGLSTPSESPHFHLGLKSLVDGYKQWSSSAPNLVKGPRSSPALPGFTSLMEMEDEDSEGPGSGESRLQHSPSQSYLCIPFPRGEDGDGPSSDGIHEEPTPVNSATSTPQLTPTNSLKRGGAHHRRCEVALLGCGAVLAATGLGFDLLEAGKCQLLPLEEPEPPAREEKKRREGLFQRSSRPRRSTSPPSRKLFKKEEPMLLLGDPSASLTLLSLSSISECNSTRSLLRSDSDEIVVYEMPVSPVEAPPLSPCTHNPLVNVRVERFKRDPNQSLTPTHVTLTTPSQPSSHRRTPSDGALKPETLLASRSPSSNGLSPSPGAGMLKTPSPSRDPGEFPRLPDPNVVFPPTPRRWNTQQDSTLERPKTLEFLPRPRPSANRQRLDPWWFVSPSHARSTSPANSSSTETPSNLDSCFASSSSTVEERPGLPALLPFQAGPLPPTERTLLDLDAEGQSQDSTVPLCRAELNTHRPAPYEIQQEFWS

[29] = molecular target: MLK4(h) (Homo sapiens (Human), UniProt Q5TCX8); set-up: dose or concentration left out as unconfirmed
[30] = molecular target: Abl(h) (Homo sapiens (Human), UniProt P00519); set-up: dose or concentration left out as unconfirmed
[31] = molecular target: EGFR(h) (Homo sapiens (Human), UniProt P00533); set-up: dose or concentration left out as unconfirmed
[32] = molecular target: MARK4(h) (Homo sapiens (Human), UniProt Q96L34); set-up: dose or concentration left out as unconfirmed
Chain of MARK4(h) (Q96L34 whole entry): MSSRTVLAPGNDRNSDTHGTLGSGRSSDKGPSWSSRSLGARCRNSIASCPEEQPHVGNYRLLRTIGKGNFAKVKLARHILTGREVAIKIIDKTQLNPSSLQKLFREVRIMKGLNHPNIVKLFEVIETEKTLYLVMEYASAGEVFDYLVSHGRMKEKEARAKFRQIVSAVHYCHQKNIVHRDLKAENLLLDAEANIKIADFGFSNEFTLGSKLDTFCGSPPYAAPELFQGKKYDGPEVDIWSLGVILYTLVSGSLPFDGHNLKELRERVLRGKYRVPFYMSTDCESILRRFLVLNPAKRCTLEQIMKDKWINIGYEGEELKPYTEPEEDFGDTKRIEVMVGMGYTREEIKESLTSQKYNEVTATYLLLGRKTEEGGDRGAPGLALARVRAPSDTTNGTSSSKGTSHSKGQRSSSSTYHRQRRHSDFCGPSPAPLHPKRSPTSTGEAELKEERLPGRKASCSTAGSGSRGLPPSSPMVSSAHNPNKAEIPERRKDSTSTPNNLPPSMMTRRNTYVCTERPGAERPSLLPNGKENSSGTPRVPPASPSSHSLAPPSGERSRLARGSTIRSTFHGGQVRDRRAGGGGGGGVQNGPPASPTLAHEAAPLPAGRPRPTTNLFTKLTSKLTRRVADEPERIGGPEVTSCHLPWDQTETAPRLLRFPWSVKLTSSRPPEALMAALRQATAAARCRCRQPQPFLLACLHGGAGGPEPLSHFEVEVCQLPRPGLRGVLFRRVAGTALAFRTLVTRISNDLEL

[33] = molecular target: NDR1(h) (Homo sapiens (Human), UniProt Q15208); set-up: dose or concentration left out as unconfirmed

## Cc1cc2c(-c3ccc(NC(=O)[C@H](N)CC(C)(C)C)cc3C)ccnc2[nH]1 [Compound F-90, (2R)-2-Amino-4,4-dimethyl-N-[3-methyl-4-(2-methyl-1H-pyrrolo[2,3-b]pyridin-4-yl)phenyl]pentanamide]
[1]
  % Activity: 95%
[2]
  % Activity: 97%
[3]
  % Activity: 87%
[4]
  % Activity: 98%
[5]
  % Activity: 104%
[6]
  % Activity: 110%
[7]
  % Activity: 109%
[8]
  % Activity: 105%
[9]
  % Activity: 106%
[10]
  % Activity: 96%
[11]
  % Activity: 94%
[12]
  % Activity: 101%
[13]
  % Activity: 98%
[14]
  % Activity: 101%
[15]
  % Activity: 95%
[16]
  % Activity: 106%
[17]
  % Activity: 87%
[18]
  % Activity: 86%
[19]
  % Activity: 103%
[20]
  % Activity: 89%
[21]
  % Activity: 76%
[22]
  % Activity: 87%
[23]
  % Activity: 85%
[24]
  % Activity: 79%
[25]
  % Activity: 110%
[26]
  % Activity: 106%
[27]
  % Activity: 104%
[28]
  % Activity: 103%
[29]
  % Activity: 112%
[30]
  % Activity: 99%
[31]
  % Activity: 107%
[32]
  % Activity: 92%
[33]
  % Activity: 100%
